Source: patent publication US20180313843A1, “SAMHD1 MODULATION FOR TREATING RESISTANCE TO CANCER THERAPY” (priority 2015, published 2018)
Values after ≈ are worked out from the molar mass of the structure shown.

How the values were obtained:
HEL SAMHD1 wt = experiment: Cell viability, Ara-C with or without 3-DU, SAMHD1 wt over-expression; type: cell-based, human; conditions: for dependence of anti-leukemic activity on expression levels of SAMHD1: THP-1 (−/−) vs (+/+), AML panel and HEL versus HEL SAMHD1 wt cells
THP-1 −/− = experiment: Cell viability, Ara-C with or without 3-DU and other NAs, SAMHD1 knock-out; type: cell-based, human
Description: THP-1 CRISP/Cas9 control and SAMHD1 knock-out cells were provided by Prof. Veit Hornung and cultivated in RPMI supplemented with 10% FCS, 100 IU/ml penicillin, and […] streptomycin. PDX cells were thawed and cultivated as previously described (Vick, 2015).
(§1) Cell viability assay. Cell viability of the AML cell lines and primary AML cultures were determined by the 3-(4,5-dimethylthiazol-2-yl)-2,5-diphenyltetrazolium bromide (MTT) dye reduction assay after 96 hour incubation as described previously (reference 7). Due to lower cell proliferation frequencies of the primary cells the CellTiter-Glo® Luminescent Cell Viability Assay (Promega) was used according to manufacturer's instruction. Here, the number of viable cells was determined 96 hours post treatment based on the quantification of the ATP levels.

SAMHD1 = target: T1, SAMHD1 (Homo sapiens, UniProt Q9Y3Z3); experiment: Enzymatic in vitro assay with bacterially expressed SAMHD1 protein (triphosphohydrolase activity); type: biochemical; conditions: dGTP used as activator of SAMHD1
T1 construct: made in house
T1 sequence (Q9Y3Z3 whole entry): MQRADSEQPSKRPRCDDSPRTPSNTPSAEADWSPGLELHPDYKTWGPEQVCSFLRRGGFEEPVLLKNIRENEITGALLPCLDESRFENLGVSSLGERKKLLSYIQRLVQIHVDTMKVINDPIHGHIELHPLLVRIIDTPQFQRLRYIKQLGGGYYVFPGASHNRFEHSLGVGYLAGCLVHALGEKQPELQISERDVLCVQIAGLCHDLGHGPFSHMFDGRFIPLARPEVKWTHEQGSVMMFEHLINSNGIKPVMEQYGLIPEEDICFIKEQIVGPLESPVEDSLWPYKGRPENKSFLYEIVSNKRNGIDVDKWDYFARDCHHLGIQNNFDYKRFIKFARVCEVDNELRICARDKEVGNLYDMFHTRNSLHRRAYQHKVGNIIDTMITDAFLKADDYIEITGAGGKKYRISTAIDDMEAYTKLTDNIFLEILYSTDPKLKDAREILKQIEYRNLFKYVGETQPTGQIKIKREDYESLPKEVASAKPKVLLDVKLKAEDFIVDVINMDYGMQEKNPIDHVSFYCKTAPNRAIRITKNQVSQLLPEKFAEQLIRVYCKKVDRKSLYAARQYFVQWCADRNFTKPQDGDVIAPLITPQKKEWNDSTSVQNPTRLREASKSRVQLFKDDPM
Excerpt: SAMHD1 hydrolyzes intracellular dNTPs resulting in a reduction of intracellular dNTP pools.

[1] = system: intracellular Ara-CTP, CTP and dCTP levels; experiment: Effect of 3-DU and Ara-C on intracellular triphosphate levels; type: cell-based; conditions: 3-DU treatment in combination with Ara-C
Description: dNTP measurement. 5×10^5 cells were treated with 10 μg/ml Ara-C 13C3 (Santa Cruz) and incubated at 37° C. in a humidified 5% CO2 incubator for 6 hours. Subsequently, cells were washed twice in 1×PBS, pelleted and stored at −20° C. until measurement. The samples were analyzed at the Institute of Clinical Pharmacology (Goethe University Frankfurt) by liquid chromatography-electrospray ionization-tandem mass spectrometry as previously described (reference 8).
Briefly, the analytes were extracted by protein precipitation with methanol. […] Additional to the analytes reported in the publication, 13C3-Ara-CMP, 13C3-Ara-CDP and 13C3-Ara-CTP were quantified using the validated method and cytidine-^13C9, ^15N3-5′-triphosphate as internal standard (IS). The precursor-to-product ion transitions used as quantifiers were m/z 327.0→115.1 for 13C3-Ara-CMP, m/z 407.0→115.1 for 13C3-Ara-CDP and m/z 487.0→115.1 for 13C3-Ara-CTP. A calibration curve was constructed for the quantitation of 13C3-Ara-CMP while no calibration standards were commercially available for 13C3-Ara-CDP and 13C3-Ara-CTP. For this reason, these analytes were quantified semiquantitatively by comparing the peak area ratios (analyte/IS) determined in the differently treated samples. […]

THP-1 cells = experiment: Cytotoxic effects of cytarabine in VLP-treated THP-1 cells; type: cell-based, human; conditions: Vpx-VLPs treated THP-1 cells
[2] = system: THP-1 (−/−) and THP-1 (+/+) cells; experiment: Cytarabine triphosphate measurement by liquid chromatography tandem mass spectrometry; type: cell-based, human; conditions: 10 μg/ml cytarabine for 6 h
Description: dNTP measurement. […] Subsequently, cells were washed twice in 1×PBS, pelleted and stored at −20° C. until measurement. The samples were analyzed at the Institute of Clinical Pharmacology (Goethe University Frankfurt) by liquid chromatography-electrospray ionization-tandem mass spectrometry as previously described (reference 8).
Briefly, the analytes were extracted by protein precipitation with methanol. An anion exchange HPLC column (BioBasic AX, Thermo) was used for the chromatographic separation and a 5500 QTrap (Sciex, Darmstadt, Germany) was used as analyzer, operating as triple quadrupole in positive multiple reaction monitoring (MRM) mode. Additional to the analytes reported in the publication, 13C3-Ara-CMP, 13C3-Ara-CDP and 13C3-Ara-CTP were quantified using the validated method and cytidine-^13C9, ^15N3-5′-triphosphate as internal standard (IS). The precursor-to-product ion transitions used as quantifiers were m/z 327.0→115.1 for 13C3-Ara-CMP, m/z 407.0→115.1 for 13C3-Ara-CDP and m/z 487.0→115.1 for 13C3-Ara-CTP. A calibration curve was constructed for the quantitation of 13C3-Ara-CMP while no calibration standards were commercially available for 13C3-Ara-CDP and 13C3-Ara-CTP. For this reason, these analytes were quantified semiquantitatively by comparing the peak area ratios (analyte/IS) determined in the differently treated samples.

SIG-M5 cells = experiment: Cytarabine toxicity after SAMHD1 shRNA knock-down; type: cell-based, human; conditions: SIG-M5, SAMHD1 shRNA compared to control shRNA
[3] = system: HELrAra-C, HL-60rAra-C and Molm-13rAra-C; experiment: Cytarabine cytotoxicity in Ara-C resistant AML sublines; type: cell-based, human
Description: Ara-C resistant cell lines THP-1, HEL, HL-60, Molm13, and Molt4 were established by continuous exposure to increasing drug concentrations and are part of the Resistant Cancer Cell Line (RCCL) collection (http://www.kent.ac.uk/stms/cmp/RCCL/RCCLabout). The generation of resistant cell lines required 1 to 2 years, depending on the cell line used. All cell lines were maintained in IMDM supplemented with 10% FCS (SIG-M5 20% FCS), […] L-Glutamine, 100 IU/ml penicillin, and […] streptomycin at 37° C. in a humidified 5% CO2 incubator. 293T cells were maintained as previously described (Keppler et al).
as §1
Remarkably, expression levels of SAMHD1 were increased in resistant cells relative to the parental cell lines (FIGS. 8A and B).

AML cell lines = experiment: Cell viability assay (MTT), cytarabine in panel of AML cell lines; type: cell-based; conditions: Homo sapiens, read-out: IC50 values (concentrations inhibiting 50% of cell growth) of cytarabine; range over AML cell lines
Description: as §1

BFTC 905 = experiment: Ara-C/SAMHD1-inhibitor combination treatment, urothelial carcinoma cells; type: cell-based; conditions: Homo sapiens, BFTC-905, read-out: IC50 value Ara-C
OCI-AML3 shSAMHD1 = experiment: Cell viability, Ara-C with or without 3-DU, SAMHD1 knock-down; type: cell-based, human; conditions: OCI-AML-3, SAMHD1 shRNA compared to control shRNA
glioma cell line U251-MG = experiment: Effect of Vpx-VLPs on cytotoxic activity of cytarabine in glioma cells; type: cell-based; conditions: U251-MG treated with Vpx-VLPs

## Nc1nc(Cl)nc2c1ncn2[C@@H]1O[C@H](CO)[C@@H](O)[C@@H]1F [clofarabine]
HEL SAMHD1 wt
  dependence of anti-leukemic activity on expression levels of SAMHD1: depends on expression levels of SAMHD1 albeit to a lesser extent than for cytarabine
THP-1 −/−
  IC50 lower in THP-1 (−/−) cells than in THP-1 (+/+) cells: 2 fold

## cytarabine triphosphate
SAMHD1
  substrate or activator of SAMHD1's triphosphohydrolase activity: direct substrate, but not as an activator

## Nc1nc(F)nc2c1ncn2[C@@H]1O[C@H](CO)[C@@H](O)[C@@H]1O [fludarabine]
THP-1 −/−
  IC50 lower in THP-1 (−/−) cells than in THP-1 (+/+) cells: 5 fold

## O=C1C=CN([C@@H]2O[C@H](CO)[C@@H](O)[C@H]2O)C(=O)C1 [3-DU, 3-deazauridin]
[1]
  intracellular Ara-CTP levels: strongly increased
  intracellular cytodine-triphosphate (CTP) and dCTP levels: reducing

## Nc1nc2c(ncn2[C@@H]2O[C@H](CO)[C@@H](O)[C@@H]2O)c(=O)[nH]1 [Ara-G]
HEL SAMHD1 wt
  dependence of anti-leukemic activity on expression levels of SAMHD1: depends on expression levels of SAMHD1 albeit to a lesser extent than for cytarabine

## COc1nc(N)nc2c1ncn2[C@@H]1O[C@H](CO)[C@@H](O)[C@@H]1O [nelarabine]
HEL SAMHD1 wt
  dependence of anti-leukemic activity on expression levels of SAMHD1: depends on expression levels of SAMHD1 albeit to a lesser extent than for cytarabine
THP-1 −/−
  IC50 lower in THP-1 (−/−) cells than in THP-1 (+/+) cells: 5 fold

## Nc1ccn([C@@H]2O[C@H](CO)[C@@H](O)[C@@H]2O)c(=O)n1 [Ara-C, cytarabine]
HEL SAMHD1 wt; HEL wt SAMHD1 compared to parental HEL or HEL SAMHD1 D207N
  decrease of sensitivity to cytarabine by wt SAMHD1 over-expression: about 70 fold
THP-1 −/−; THP-1 (−/−) relative to control THP-1 (+/+)
  increase of cytarabine toxicity in SAMHD1 knock-out cells: about 50 fold
THP-1 cells
  increase of cytarabine's anti-leukemic activity: about 20 fold
[2]
  cytarabine triphosphate amounts accumulated, THP-1(−/−) compared with THP-1(+/+): About 20 fold
SIG-M5 cells
  increase of cytarabine toxicity by SAMHD1 knock-down: ~9 fold
[3]; Homo sapiens, read-out: IC50 values of cytarabine, range over highly resistant sublines of HEL, HL-60 and MOLM-13
  IC50: 24 to 94 µg/mL (≈ 98.7 to 386 µM)
[3]; all three cell lines tested
  toxicity of cytarabine after reduction of SAMHD1 levels using Vpx-VLPs: increased toxicity
AML cell lines
  IC50: 0.0078 to 0.56 µg/mL (≈ 0.0321 to 2.3 µM)
BFTC 905
  IC50: 0.021 µg/mL
OCI-AML3 shSAMHD1
  increase of cytarabine toxicity by SAMHD1 knock-down: about 6 fold
Glioma cell line U251-MG
  enhancement of the anti-tumoral activity of cytarabine: up to 10 fold
